Assay results taken from patent EP4741383A1, “COMPOUND AND USE THEREOF AS ANTI-CANCER DRUG” (Tyligand Bioscience (Shanghai) Limited, priority 2023, dated 2025).

Molecular target: T1, SHP2 enzyme (catalytic domain, amino acid sequence 224-528) (Homo sapiens, UniProt Q06124)
T1 construct: purchased GenScript
T1 sequence (Q06124 224-528): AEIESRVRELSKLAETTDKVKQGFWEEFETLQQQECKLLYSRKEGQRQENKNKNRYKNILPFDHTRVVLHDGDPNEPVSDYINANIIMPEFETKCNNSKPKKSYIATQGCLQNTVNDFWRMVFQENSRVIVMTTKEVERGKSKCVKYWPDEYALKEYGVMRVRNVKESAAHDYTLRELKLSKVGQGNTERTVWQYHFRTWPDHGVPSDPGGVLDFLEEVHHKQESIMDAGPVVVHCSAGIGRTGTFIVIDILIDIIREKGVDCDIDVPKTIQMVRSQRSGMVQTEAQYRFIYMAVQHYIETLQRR
Assay: SHP2 enzyme inhibition assay (DiFMUP substrate, fluorescence)
Assay type: biochemical
Details: SHP2 catalytic domain, DiFMUP substrate, 30 min pre-incubation; read-out: S HP2 I C50
Protocol: This experiment evaluates the inhibitory effect of the test compounds on SHP2 enzyme activity by detecting the reaction between the human recombinant protein SHP2 enzyme and the substrate.
The stock solutions of the reaction buffer components were thawed and mixed homogeneously at room temperature, to prepare the reaction buffer (55 mM HEPES pH = 7.2 (Sigma, Cat. No. #PHR1428), 100 mM NaCl (Beyotime, Cat. No. #ST374, 5 M solution), 0.5 mM EDTA (Beyotime, Cat. No. #ST066), 1 mM DL-Dithiothreitol (DTT) (Sigma, Cat. No. #D9779), 0.002% BSA (Solarbio, Cat. No. #A8010), 0.001% Brij35 (Brij® L23 solution (Brij35) (Sigma, Cat. No. #B4184)). The SHP2 enzyme (catalytic domain, amino acid sequence 224-528, expressed and purified by GenScript) was thawed slowly on ice. 1 µL of this solution (1.37 mg/mL) was added to 386 µL of the reaction buffer to dilute it to 100 nM. Then, 120 µL of the 100 nM SHP2 enzyme solution was added to 2880 µL of reaction buffer to prepare a 4 nM SHP2 enzyme working solution. The test compounds and the specific inhibitor of SHP2 (11a-1, used as a positive control, Zeng, L. et al., J. Med. Chem. 2014, 57, 6594-6609) were prepared as 10 mM DMSO solutions. 10 µL of the 10 mM compound solution was mixed with 20 µL of DMSO solution, and then serially diluted 3-fold, resulting in 10 concentrations. 1 µL of the serially diluted solution was mixed with 99 µL of reaction buffer to obtain a 10-fold diluted compound working solution.
A 96-well black half-area microplate (Greiner, catalog #675076) was used. 25 µL of 4 nM SHP2 enzyme working solution and 5 µL of 10x compound working solution were added to each well and incubated at room temperature for 30 minutes. 15 µL of DiFMUP substrate (Thermo Fisher Scientific, catalog #D6567) was added to 2985 µL of reaction buffer to prepare a 50 µM substrate working solution. After incubation of the compounds and SHP2 enzyme, 20 µL of the 50 µM substrate working solution was added to each well and incubated at room temperature for 5 minutes. The plate was then read on a multi-mode microplate reader (BioTek, Synergy H1) at 340 nm/450 nm fluorescence.
Data were analyzed using GraphPad Prism 9.0 software. A non-linear S-curve regression dose-response-inhibition equation was used to fit the data and generate the dose-response curve, from which the IC50 value was calculated. [formula]

Point of comparison: `O=C(Nc1ccc(-c2cc3cc(F)c(-c4nnn[nH]4)cc3n2C2CCC2)cc1)C(=O)Nc1ccc(N2CCC3(CCCCO3)CC2)cc1` [Example 73], IC50 0.048 µM. Against it:
- CCC1CN(c2ccc(NC(=O)C(=O)Nc3ccc(-c4cc5cc(F)c(-c6nnn[nH]6)cc5n4C4CCC4)cc3)cc2)CCO1 (stereo not shown) [Example 48] — within 1.5-fold, 0.05 µM
- O=C(Nc1ccc(-c2cc3cc(F)c(-c4nnn[nH]4)cc3n2C2CCC2)cc1)C(=O)Nc1ccc(N2CC3CC2CO3)cc1 (stereo not shown) [Example 49] — 2.8-fold higher, 0.133 µM
- O=C(Nc1ccc(-c2cc3cc(F)c(-c4nnn[nH]4)cc3n2C2CCC2)cc1)C(=O)Nc1ccc(N2CCOC3(CC3)C2)cc1 [Example 50] — 2.4-fold higher, 0.113 µM
- O=C(Nc1ccc(C2=CCOC2)cc1)C(=O)Nc1ccc(-c2cc3cc(F)c(-c4nnn[nH]4)cc3n2C2CCC2)cc1 [Example 51] — within 1.5-fold, 0.057 µM
- O=C(Nc1ccc(C2=CCOCC2)cc1)C(=O)Nc1ccc(-c2cc3cc(F)c(-c4nnn[nH]4)cc3n2C2CCC2)cc1 [Example 52] — 2.1-fold higher, 0.102 µM
- O=C(Nc1ccc(-c2cc3cc(F)c(-c4nnn[nH]4)cc3n2C2CCC2)cc1)C(=O)Nc1ccc(N2CC3(COC3)C2)cc1 [Example 53] — within 1.5-fold, 0.064 µM
- O=C(Nc1ccc(-c2cc3cc(F)c(-c4nnn[nH]4)cc3n2C2CCC2)cc1)C(=O)Nc1ccc(N2CC3(CCOC3)C2)cc1 [Example 54] — within 1.5-fold, 0.069 µM
- CC1(n2c(-c3ccc(NC(=O)C(=O)Nc4ccc(N5CC6(CCCOC6)C5)cc4)cc3)cc3cc(F)c(-c4nnn[nH]4)cc32)CCC1 [Example 56] — 1.5-fold higher, 0.074 µM
- O=C(Nc1ccc(-c2cc3cc(F)c(-c4nnn[nH]4)cc3n2C2CCC2)cc1)C(=O)Nc1ccc(N2CCC3(CCCO3)C2)cc1 (stereo not shown) [Example 60] — within 1.5-fold, 0.064 µM
- O=C(Nc1ccc(-c2cc3cc(F)c(-c4nnn[nH]4)cc3n2C2CCC2)cc1)C(=O)Nc1ccc(N2CCC3(CC2)COC3)cc1 [Example 63] — within 1.5-fold, 0.038 µM
- O=C(Nc1ccc(N2CCC3(CCOC3)CC2)cc1)C(=O)NC1CC=C(c2cc3cc(F)c(-c4nnn[nH]4)cc3n2C2CC2)CC1 (stereo not shown) [Example 64] — 1.8-fold higher, 0.088 µM
- O=C(Nc1ccc(N2CCC3(CCOC3)CC2)cc1)C(=O)NC12CC(c3cc4cc(F)c(-c5nnn[nH]5)cc4n3C3CCC3)(C1)C2 [Example 65] — 4.1-fold higher, 0.198 µM
- O=C(Nc1ccc(N2CCC3(CCOC3)CC2)cc1)C(=O)NC1CCN(c2cc3cc(F)c(-c4nnn[nH]4)cc3n2C2CCC2)CC1 [Example 66] — 6.1-fold higher, 0.291 µM
- O=C(Nc1ccc(-c2cc3cc(F)c(-c4nnn[nH]4)cc3n2C23CC(C2)C3)cc1)C(=O)Nc1ccc(N2CCC3(CCOC3)CC2)cc1 [Example 71] — within 1.5-fold, 0.05 µM
- O=C(Nc1ccc(-c2cc3cc(F)c(-c4nnn[nH]4)cc3n2CC2CC2)cc1)C(=O)Nc1ccc(N2CCC3(CCOC3)CC2)cc1 [Example 72] — within 1.5-fold, 0.046 µM
- O=C(Nc1ccc(-c2cc3cc(F)c(-c4nnn[nH]4)cc3n2C2CCC2)cc1)C(=O)Nc1ccc(N2CC3(C2)CC(O)(C(F)(F)F)C3)cc1 [Example 78] — 1.5-fold higher, 0.074 µM
- O=C(Nc1ccc(-c2cc3cc(F)c(-c4nnn[nH]4)cc3n2C2CCC2)cc1)C(=O)Nc1ccc(N2CC3(CCC(O)C3)C2)cc1 (stereo not shown) [Example 79] — 2.2-fold higher, 0.108 µM
- CC1(O)CCC2(CN(c3ccc(NC(=O)C(=O)Nc4ccc(-c5cc6cc(F)c(-c7nnn[nH]7)cc6n5C5(C)CCC5)cc4)cc3)C2)C1 (stereo not shown) [Example 80] — within 1.5-fold, 0.036 µM
- O=C(Nc1ccc(-c2cc3cc(F)c(-c4nnn[nH]4)cc3n2C2CCC2)cc1)C(=O)Nc1ccc(N2CC3(CCC(O)CC3)C2)cc1 [Example 81] — within 1.5-fold, 0.07 µM
- CC1(O)CCC2(CC1)CN(c1ccc(NC(=O)C(=O)Nc3ccc(-c4cc5cc(F)c(-c6nnn[nH]6)cc5n4C4(C)CCC4)cc3)cc1)C2 [Example 84] — within 1.5-fold, 0.06 µM
- O=C(Nc1ccc(-c2cc3cc(F)c(-c4nnn[nH]4)cc3n2C2CCC2)cc1)C(=O)Nc1ccc(N2CC3(CCC(CO)CC3)C2)cc1 [Example 85] — within 1.5-fold, 0.047 µM
- CC(C)(O)C1CCC2(CC1)CN(c1ccc(NC(=O)C(=O)Nc3ccc(-c4cc5cc(F)c(-c6nnn[nH]6)cc5n4C4CCC4)cc3)cc1)C2 [Example 87] — 1.9-fold higher, 0.089 µM
- CC(C)(O)C1CCC2(CC1)CN(c1ccc(NC(=O)C(=O)Nc3ccc(-c4cc5cc(F)c(-c6nnn[nH]6)cc5n4C4(C)CCC4)cc3)cc1)C2 [Example 88] — 3.1-fold higher, 0.148 µM
- CC1(n2c(-c3ccc(NC(=O)C(=O)Nc4ccc(N5CCC6(CC(O)C6)C5)cc4)cc3)cc3cc(F)c(-c4nnn[nH]4)cc32)CCC1 (stereo not shown) [Example 90] — 2.9-fold higher, 0.139 µM
- CC1(O)CCC2(CCN(c3ccc(NC(=O)C(=O)Nc4ccc(-c5cc6cc(F)c(-c7nnn[nH]7)cc6n5C5CCC5)cc4)cc3)C2)C1 (stereo not shown) [Example 93] — within 1.5-fold, 0.056 µM
- CC1(O)CCC2(CCN(c3ccc(NC(=O)C(=O)Nc4ccc(-c5cc6cc(F)c(-c7nnn[nH]7)cc6n5C5(C)CCC5)cc4)cc3)CC2)C1 (stereo not shown) [Example 105] — 1.8-fold higher, 0.086 µM
- O=C(Nc1ccc(-c2cc3cc(F)c(-c4nnn[nH]4)cc3n2C2CCC2)cc1)C(=O)Nc1ccc(N2CCC3(CCC(CO)CC3)CC2)cc1 [Example 112] — 2.2-fold higher, 0.105 µM
- O=C(Nc1ccc(-c2ccsc2)cc1)C(=O)Nc1ccc(-c2cc3ccc(-c4cnn[nH]4)cc3n2C2CCC2)cc1 [Example 121] — higher, > 10 µM
- O=C(Nc1ccc(-c2cc3cc(F)c(-c4nnn[nH]4)c(F)c3n2C2CCC2)cc1)C(=O)Nc1ccc(N2CCC3(CCOC3)CC2)cc1 [Example 126] — 2.1-fold lower, 0.023 µM
- N#Cc1nnc(-c2cc3c(cc2F)cc(-c2ccc(NC(=O)C(=O)Nc4ccc(N5CCC6(CCOC6)CC5)cc4)cc2)n3C2CCC2)[nH]1 [Example 127] — 3-fold higher, 0.144 µM
- Cc1nnc(-c2cc3c(cc2F)cc(-c2ccc(NC(=O)C(=O)Nc4ccc(N5CCC6(CCOC6)CC5)cc4)cc2)n3C2CCC2)[nH]1 [Example 128] — higher, > 10 µM

Same assay, conditions: relative to 11a-1, IC50 = 0.108 µM

`O=C(Nc1ccc(-c2cc3cc(F)c(-c4nnn[nH]4)cc3n2C2CCC2)cc1)C(=O)Nc1ccc(N2CCC3(CC2)COC3)cc1` [Example 63] was tested, and the “SHP2 IC50 times lower than control compound 11a-1” value was 3-4 times.
With `CC1(O)CCC2(CN(c3ccc(NC(=O)C(=O)Nc4ccc(-c5cc6cc(F)c(-c7nnn[nH]7)cc6n5C5(C)CCC5)cc4)cc3)C2)C1` (stereo not shown) [Example 80] the “SHP2 IC50 times lower than control compound 11a-1” value was 3-4 times.
